In article PMC10545747, “Development of cyclopeptide inhibitors of cGAS targeting protein-DNA interaction and phase separation” (Nature Communications, 2023):
Several values for one entry are separate records, joined by “and”; a condition that tells them apart may be missing. Identical values can stand only once. Square brackets hold non-standard residues; d marks the D form. Peptide text beside a SMILES is read from it.

Columns and labels:
[1] = molecular target: T1, truncated cGAS (hcGAS-ΔN, residues 147–522) (Homo sapiens, UniProt Q8N884); experiment: Surface plasmon resonance (SPR); type: binding
T1 construct: N-terminally truncated human cGAS (hcGAS-ΔN, residues 147–522); 6xHis-SUMO (N, cleaved yes); made in house; host or cells: Escherichia coli BL21 (DE3)
T1 sequence (Q8N884 147-522, stated change not applied): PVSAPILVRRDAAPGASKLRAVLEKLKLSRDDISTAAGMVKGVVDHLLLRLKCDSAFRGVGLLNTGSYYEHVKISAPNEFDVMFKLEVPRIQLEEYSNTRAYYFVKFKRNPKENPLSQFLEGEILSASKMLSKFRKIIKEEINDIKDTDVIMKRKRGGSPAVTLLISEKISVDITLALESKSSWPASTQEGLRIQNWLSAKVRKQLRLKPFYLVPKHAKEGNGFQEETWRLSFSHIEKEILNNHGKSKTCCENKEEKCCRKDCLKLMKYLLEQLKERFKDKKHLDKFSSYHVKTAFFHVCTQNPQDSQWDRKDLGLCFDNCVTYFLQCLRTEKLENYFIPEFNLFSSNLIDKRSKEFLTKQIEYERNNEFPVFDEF
Description: (§1) All SPR binding studies were performed with a Biacore 8 K instrument (GE Healthcare Life Sciences). hcGAS-FL / hcGAS-ΔN (1 mg mL^−1) was immobilized in a CM5 chip by EDC/NHS method. The tested peptide was diluted with running buffer (20 mM HEPES, pH 7.5, 125 mM KCl,10 mM MgCl2). All the samples contained the same concentration of DMSO (0.5%). The tested peptide was injected at a flow rate of 30 μL min^−1 for 200 s of association, followed by 200 s of disassociation at 25 °C. The final graphs were obtained by subtracting blank sensorgrams. The data were analyzed with Biacore Insight Evaluation software.

[2] = molecular target: T2, full-length human cGAS (hcGAS-FL) (Homo sapiens, UniProt Q8N884); experiment: Surface plasmon resonance (SPR); type: binding
T2 construct: The gene encoding full-length human cGAS (hcGAS-FL); 6xHis-SUMO (N, cleaved yes); made in house; host or cells: Escherichia coli BL21 (DE3)
T2 sequence (Q8N884 whole entry): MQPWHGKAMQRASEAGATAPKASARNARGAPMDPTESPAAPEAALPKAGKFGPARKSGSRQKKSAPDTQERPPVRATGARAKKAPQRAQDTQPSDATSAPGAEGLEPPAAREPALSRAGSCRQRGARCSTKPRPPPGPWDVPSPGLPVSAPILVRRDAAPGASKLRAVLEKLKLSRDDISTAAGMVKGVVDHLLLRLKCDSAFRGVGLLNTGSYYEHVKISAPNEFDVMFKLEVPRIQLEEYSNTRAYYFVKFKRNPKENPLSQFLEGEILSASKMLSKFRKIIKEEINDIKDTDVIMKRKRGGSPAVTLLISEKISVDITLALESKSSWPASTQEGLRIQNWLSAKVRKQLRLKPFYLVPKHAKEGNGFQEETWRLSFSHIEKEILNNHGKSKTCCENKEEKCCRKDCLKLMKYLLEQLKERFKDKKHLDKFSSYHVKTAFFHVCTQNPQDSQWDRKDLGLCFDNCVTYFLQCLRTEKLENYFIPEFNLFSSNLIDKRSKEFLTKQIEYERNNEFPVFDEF
Description: as §1

Hela cells = experiment: HSV-1 cytopathogenic effect, CCK-8 viability (rebuttal Fig. R1); type: cell-based, human; settings: 10 μM
Description: We tested the effect of XQ2 on human cervical cancer
HSV-1 infection given that epithelial cells are generally weak responders of cGAS-
cells and THP1 cells were pretreated for 3 h with DMSO or XQ2 (10 μM), followed by
the indicated titer of HSV-1 infection. The cell v iability was measured by CCK-8 assay.

[3] = tested on: cGAS-knockout Hela cells reconstituted with EGFP-hcGAS-FL; experiment: Live-cell imaging of cGAS-DNA puncta; type: cell-based, human; settings: 10 μM, 4 h
Description: cGAS-knockout Hela cells reconstituted with EGFP-tagged full-length human cGAS (EGFP-hcGAS-FL) were obtained by transfecting pEGFP-C2-hcGAS-FL recombinant plasmid, and were seeded into 20-mm glass-bottom cell culture dish (NEST). Cell culture media was replaced with fresh medium for 1 h, then cells were stimulated by transfection of ISD by lipofectamine 2000 (Invitrogen) after DMSO or XQ2 (10 μM) treatment for the indicated time. The cells were rinsed three times with PBS, and live-cell imaging was performed by using Nikon A1R+ confocal microscope with a 40× oil objective, Nikon A1 camera, and X-Cite 120LED laser. Images were analyzed by FIJI software.

human cGAS (hcGAS) = human cGAS (hcGAS) (Homo sapiens, UniProt Q8N884); experiment: biochemical; settings: MST
Sequence of human cGAS (hcGAS) (Q8N884 whole entry): as above
Description: The binding ability of XQ2 with Cy5-ISD and XQ2 with human cGAS were tested using NanoTemper Monolith NT.115 instrument (20% LED, 40% MST power) at 25 °C. Serial dilutions of XQ2 were mixed with 10 nM of Cy5-ISD or 100 nM of fluorescent labeled hcGAS, incubated for 10 min at room temperature in HEPES buffer (50 mM HEPES, pH 7.5, 200 mM NaCl, 20 mM MgCl2, 0.05% Tween 20) with or without 1 mM ATP and 0.5 mM GTP or 2 M (NH4)2SO4 (Sigma-Aldrich). Excitation was optimized by varying the power to obtain fluorescence intensities above 200 counts. Data were analyzed by using the MO.Affinity Analysis software.

L929 cells = experiment: in vitro; settings: for Cell viability (Fig. S2e): L929 (48h)
Description: Cell viability was measured by cell counting kit-8 (TargetMol) according to the manufacturer’s instructions. […]
(e-g) THP1 cells (e), L929 cells (f) and RAW264.7 cells (g) were exposed to the indicated doses of XQ2 for 48h, the cell viability was measured by CCK8 assay. Data are representative of three independent experiments in (a-g). (Data are presented as mean ± SD, n = 3 independent samples in (a-g), **p < 0.01, ***p < 0.001, ****p < 0.0001 using one-way ANOVA with Dunnett’s post hoc test).
(§2) Source data are provided as a Source Data file.

[4] = tested on: TREX1 knockdown THP1 cells; experiment: qPCR of IFNB1 and CXCL10 mRNA after TREX1 siRNA; type: cell-based, human
Description: The indicated cells were stimulated with either ISD (Sangon Biotech), HSV-1 (Provided by Dr. Zhengfan Jiang), HSV60mer (Sangon Biotech), SATE-cddA[70], 2’3’-cGAMP (Invivogen, Cat# tlrl-nacga23-1), ADU-S100 (MedChemExpress, Cat# HY-12885A) or Poly(I:C) (Invivogen, Cat# tlrl-pic) after XQ2 or XQ2B treatment. Total RNA was isolated from indicated cells that incubated with the drugs for indicated time or mice tissues by using NucleoZOL reagent (MACHEREY-NAGEL) according to the manufacturer’s instructions. The quantifications of mRNA levels were carried out by real-time PCR using a PerfectStart® Uni RT&qPCR Kit (TransGen Biotech) on the QuantStudio 5 qPCR machine (Applied Biosystems). Samples were carried out in triplicate and the target CT values were normalized to GAPDH CT values. Primers of qPCR used in this study can be found in Supplementary Table S2.
siRNA of TREX1 (siTREX1) was transfected into the indicated cells by Lipofectamine RNAiMAX (Invitrogen) according to the manufacturer’s instructions. Human siTREX1, mouse siTrex1 and negative control siRNAs were purchased from Sangon Biotech. The sequences of siRNAs oligonucleotides can be found in Supplementary Table S2.
Supplementary Fig. 9. XQ2B reduces interferon expression induced by Trex1 deficiency. […]
TREX1 knockdown THP1 cells were treated with DMSO or XQ2B (10 μM) for 24 h, and the mRNA levels of TREX1
(e), IFNB1 and CXCL10 (f) were measured by qPCR. (e) p < 0.0001, (f) p = 0.0001 (Ifnb1); p = 0.0157 (Cxcl10). Data
as §2

SMILES: CC(C)C[C@@H]1NC(=O)[C@H](CCCNC(=N)N)NC(=O)[C@H](C(C)C)NC(=O)[C@@H]2CCCN2C(=O)[C@@H](Cc2ccccc2)NC(=O)[C@H](CC(C)C)NC(=O)[C@H](CCCNC(=N)N)NC(=O)[C@H](C(C)C)NC(=O)[C@H](C)NC(=O)[C@@H](Cc2ccccc2)NC1=O [XQ2, Cyclo (LfAVRLfPVR)] (cyclo(L[dF]AVRL[dF]PVR))
- Response (RU), SPR, Fig. S4b ([1]; XQ2 2.5 μM): 32.0968 RU
- Response (RU), SPR, Fig. S4b ([1]; XQ2 5 μM): 115.953 RU
- Response (RU), SPR, Fig. S4b ([1]; XQ2 10 μM): 275.186 RU
- Kd ([1]; hcGAS-ΔN, Fig. S4b): 86.5 ± 76.2 µM
- Response (RU), SPR, Fig. 3a ([2]; XQ2 2.5 μM): 57.4165 RU
- Response (RU), SPR, Fig. 3a ([2]; XQ2 5 μM): 140.669 RU
- Response (RU), SPR, Fig. 3a ([2]; XQ2 10 μM): 252.736 RU
- Kd ([2]; hcGAS-FL, one-to-one binding model, ± 95% CI): 35.9 µM and ~35 µM
- HSV-1 cytopathogenic effect in Hela cells (Hela cells): further enhanced the CPE
- puncta formation of EGFP-cGAS with ISD [3]: markedly inhibited the puncta formation of EGFP-cGAS with ISD
- Kd (human cGAS (hcGAS); absence of ATP/GTP and (NH4)2SO4 (Mock)): 45.3 ± 26.9 µM
- Kd (human cGAS (hcGAS); in the presence of (NH4)2SO4 (2M)): 1.8 ± 0.6 µM
- Kd (human cGAS (hcGAS); in the presence of ATP (1mM) and GTP (0.5mM)): 4.5 ± 1.6 µM
- Cell viability (Fig. S2e) (L929 cells; XQ2 0.23 μM): 110.662 and 106.618
- Cell viability (Fig. S2e) (L929 cells; XQ2 0.47 μM): 92.2794 and 86.3971
- Cell viability (Fig. S2e) (L929 cells; XQ2 0.94 μM): 87.1324 and 89.2157
- Cell viability (Fig. S2e) (L929 cells; XQ2 1.88 μM): 84.4363 and 91.299
- Cell viability (Fig. S2e) (L929 cells; XQ2 3.75 μM): 94.6078 and 92.0343
- Cell viability (Fig. S2e) (L929 cells; XQ2 7.5 μM): 92.2794 and 92.1569
- Cell viability (Fig. S2e) (L929 cells; XQ2 15 μM): 85.049 and 94.6078
- cytotoxicity (L929 cells; L929, 48h): no cytotoxicity

SMILES: CC(C)C[C@@H]1NC(=O)[C@H](CCCNC(=N)N)NC(=O)[C@H](C(C)C)NC(=O)[C@@H]2CCCN2C(=O)[C@@H](Cc2ccccc2)NC(=O)[C@H](CC(C)C)NC(=O)[C@H](CCCNC(=N)N)NC(=O)[C@H]([C@@H](C)O)NC(=O)[C@H](C)NC(=O)[C@@H](Cc2ccccc2)NC1=O [XQ2B] (cyclo([dF]ATRL[dF]PVRL))
- Relative mRNA level Cxcl10 ([4]; Fig. S9f, TREX1 knockdown (siTREX1 +) THP1 cells, XQ2B +, individual replicates, siTREX1 alone 2.64-3.32): 2.255 and 1.956 and 2.174
- Relative mRNA level Ifnb1 ([4]; Fig. S9f, TREX1 knockdown (siTREX1 +) THP1 cells, XQ2B +, individual replicates, siTREX1 alone 15.6-16.4): 8.9487 and 8.582 and 9.951
- expression of Ifnb1, Cxcl10 with Trex1-siRNA ([4]; THP1, 10 μM, 24 h): markedly inhibited the expression of these genes in mouse L929 and human THP1 cells with Trex1-siRNA
